From the supplement of paper PMC10307832

How the values were obtained:
Assay in all cases: relative viability (nuclei count vs DMSO), 5 days (fraction); higher = more cells survive
[1] = compound: C1COCCN1C2=NC(=NC3=C2OC4=C3C=CC=N4)C5=CC(=CC=C5)NC(=O)C6=CN=C(C=C6)N + COc1cc2c(Oc3ccc(NC(=O)C4(C(=O)Nc5ccc(F)cc5)CC4)cc3F)ccnc2cc1OCCCN1CCOCC1 [Foretinib] (partner 0.25 µM)
Summary of the method: (§1)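 For relative viability, nuclei counts in treated wells were divided by those in vehicle wells. Lung cancer cell lines had been pin-tool dosed in 1536-well plates the day after seeding and cultured for 5 days, then fixed and stained in one step (final 0.05% Triton X-100, 1% formaldehyde, 1 ug/ml Hoechst) and imaged at 4×. Doses were one drug alone or a fixed anchor-drug dose plus five library-drug doses (not always all listed) in √10 steps, and values are duplicate-plate medians.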

[2] = compound: C1COCCN1C2=NC(=NC3=C2OC4=C3C=CC=N4)C5=CC(=CC=C5)NC(=O)C6=CN=C(C=C6)N + CS(=O)(=O)CCNCc1ccc(-c2ccc3ncnc(Nc4ccc(OCc5cccc(F)c5)c(Cl)c4)c3c2)o1 [Lapatinib] (partner 2 µM)
Summary of the method: as §1

SGI-1776 + Tozasertib = compound: CN1CCC(CNc2ccc3ncc(-c4cccc(OC(F)(F)F)c4)n3n2)CC1 [SGI-1776] + Cc1cc(Nc2cc(N3CCN(C)CC3)nc(Sc3ccc(NC(=O)C4CC4)cc3)n2)n[nH]1 [Tozasertib] (partner 0.1 µM)
Summary of the method: as §1

SGI-1776 + Decitabine = compound: CN1CCC(CNc2ccc3ncc(-c4cccc(OC(F)(F)F)c4)n3n2)CC1 [SGI-1776] + Nc1ncn([C@H]2C[C@H](O)[C@@H](CO)O2)c(=O)n1 [Decitabine] (partner 2 µM)
Summary of the method: as §1

| Cell Line | relative viability ([1]; first compound 0.02 µM) | relative viability ([1]; first compound 0.06325 µM) | relative viability ([1]; first compound 0.2 µM) | relative viability ([1]; first compound 0.6325 µM) | relative viability ([1]; first compound 2 µM) | relative viability ([2]; first compound 0.02 µM) | relative viability ([2]; first compound 0.06325 µM) | relative viability ([2]; first compound 0.2 µM) | relative viability ([2]; first compound 0.6325 µM) | relative viability ([2]; first compound 2 µM) | relative viability (SGI-1776 + Tozasertib; first compound 0.08 µM) | relative viability (SGI-1776 + Tozasertib; first compound 0.8 µM) | relative viability (SGI-1776 + Tozasertib; first compound 2.53 µM) | relative viability (SGI-1776 + Tozasertib; first compound 8 µM) | relative viability (SGI-1776 + Decitabine; first compound 0.08 µM) | relative viability (SGI-1776 + Decitabine; first compound 0.8 µM) | relative viability (SGI-1776 + Decitabine; first compound 2.53 µM) | relative viability (SGI-1776 + Decitabine; first compound 8 µM) |
| --- | --- | --- | --- | --- | --- | --- | --- | --- | --- | --- | --- | --- | --- | --- | --- | --- | --- | --- |
| NCI-H322M | 0.919 | 0.918 | 0.935 | 0.849 | 0.686 | 0.553 | 0.574 | 0.506 | 0.604 | 0.45 | 0.551 | 0.483 | 0.461 | 0.394 | 0.724 | 0.753 | 0.65 | 0.658 |
| NCI-H358 | – | 0.721 | 0.537 | 0.68 | 0.477 | 0.438 | 0.45 | 0.34 | 0.387 | 0.355 | 0.0986 | 0.0957 | 0.102 | 0.0836 | 0.223 | 0.245 | 0.191 | 0.133 |
| NCI-H460 | 1.11 | 1.23 | 1.12 | 1.08 | 0.545 | 0.907 | 1.12 | 1.11 | 0.578 | 0.0915 | 0.475 | 0.278 | 0.0744 | 0.0448 | 0.476 | 0.61 | 0.49 | 0.494 |
| NCI-H520 | 0.839 | 0.742 | 0.669 | 0.798 | 0.469 | 0.874 | 1.03 | 0.897 | 0.852 | 0.441 | 0.436 | 0.442 | 0.427 | 0.385 | 0.46 | 0.523 | 0.511 | 0.414 |
| NCI-H596 | 1.13 | 0.813 | 0.893 | 0.709 | 0.616 | 0.997 | 1.04 | 1 | 0.997 | 0.765 | 1.07 | 1.04 | 0.792 | 0.577 | 1.02 | 1.05 | 1.15 | 0.997 |
| NCI-H647 | 1.17 | 1.16 | 1.13 | 1.14 | 0.667 | 1.11 | 1.22 | 0.965 | 0.868 | 0.275 | 0.389 | 0.198 | 0.175 | 0.175 | 0.409 | 0.392 | 0.44 | 0.339 |
| NCI-H650 | 1 | 1.01 | 1.06 | 1.03 | 0.919 | 0.913 | 0.915 | 0.891 | 1.02 | 0.517 | 0.823 | 0.688 | 0.373 | 0.185 | 0.337 | 0.32 | 0.341 | 0.313 |
| NCI-H661 | 1 | 1.05 | 1.02 | 0.999 | 0.742 | 0.53 | 0.554 | 0.525 | 0.351 | 0.406 | 0.347 | 0.378 | 0.336 | 0.379 | 0.572 | 0.606 | 0.501 | 0.471 |
| NCI-H727 | 0.945 | 0.807 | 0.82 | 0.865 | 0.676 | 0.829 | 0.753 | 0.742 | 0.722 | 0.686 | 0.669 | 0.598 | 0.536 | 0.472 | 0.875 | 1.01 | 1.01 | 0.613 |
| NCI-H838 | 1.06 | 0.987 | 0.952 | 0.884 | 0.487 | 0.725 | 1.06 | 0.895 | 0.705 | 0.53 | 0.262 | 0.265 | 0.195 | 0.213 | 0.46 | 0.45 | 0.435 | 0.437 |
| NCI-H1355 | 0.995 | 1.12 | 1.1 | 0.927 | 0.642 | 0.95 | 1.01 | 0.997 | 0.936 | 0.814 | 0.591 | 0.408 | 0.305 | 0.217 | 0.342 | 0.313 | 0.416 | 0.359 |
| NCI-H1395 | 0.919 | 0.909 | 0.924 | 0.984 | 0.894 | 0.782 | 1.13 | 0.91 | 0.983 | 0.831 | 0.83 | 0.817 | 0.644 | 0.39 | 0.721 | 0.708 | 0.58 | 0.674 |
| NCI-H1437 | 1.31 | 1.29 | 1.2 | 1.27 | 0.856 | 0.801 | 0.952 | 0.746 | 0.794 | 0.327 | 0.435 | 0.439 | 0.344 | 0.314 | 0.553 | 0.598 | 0.645 | 0.495 |
| NCI-H1650 | 1.12 | 1.15 | 0.974 | 1.22 | 0.76 | 0.791 | 0.792 | 0.7 | 0.775 | 0.613 | 0.374 | 0.287 | 0.214 | 0.226 | 0.456 | 0.388 | 0.473 | 0.342 |
| NCI-H1651 | 0.784 | 0.786 | 0.723 | 0.821 | 0.551 | 0.975 | 0.839 | 0.786 | 0.84 | 0.614 | 0.619 | 0.642 | 0.31 | 0.344 | 0.622 | 0.726 | 0.65 | 0.499 |
| NCI-H1666 | 1 | 0.89 | 0.774 | 0.85 | 0.672 | 0.708 | 0.598 | 0.56 | 0.648 | 0.434 | 0.667 | 0.44 | 0.406 | 0.436 | 0.8 | 0.737 | 0.729 | 0.663 |
| NCI-H1734 | 0.825 | 0.948 | 0.695 | 0.804 | 0.563 | 1.18 | 1.09 | 0.935 | 0.902 | 0.558 | 0.245 | 0.226 | 0.246 | 0.219 | 0.517 | 0.499 | 0.567 | 0.486 |
| NCI-H1755 | 0.902 | 0.94 | 0.871 | 0.805 | 0.622 | 1.09 | 1.12 | 1.05 | 1.02 | 0.653 | 0.626 | 0.521 | 0.452 | 0.373 | 0.714 | 0.695 | 0.717 | 0.622 |
